“Also recorded” adds a separate entry of the source.
How the values were obtained:
TrkB receptor = biological target: T1, TrkB receptor (Homo sapiens, UniProt Q16620); experiment: Competition with BDNF for activation (pTrkB) of TrkB in NIH 3T3 cells stably expressing TrkB; type: cell-based; settings: 0.05 μM to 10 μM with BDNF 1 ng/ml (0.04 nM), 15 min; dose-dependent
T1 construct: host or cells: NIH 3T3 fibroblasts, G418 selection
Description: To study the activation of the TrkB receptor with BDNF and/or with the peptides, NIH 3T3 cells were used, stably transfected with the TrkB receptor (obtained from Montreal Neurological Institute, Montreal, Quábec, Canada). The cell culture medium used for this cell line was: DMEM-high glucose, 10 percent normal calf serum, 1 percent glutamax, 1 percent sodium pyruvate, 1 percent penicillin-streptomycin; supplemented with the selection antibiotic G418 in a final concentration of 100 μg/ml (to guaranty the stable expression of the Trkb transgene). All Medium components were purchase from Gibco Life Technologies, Invitrogen, Grand Island, N.Y., USA.
To evaluate a possible competitive role of the peptides in the activation of TrkB receptor by BDNF, a fibroblast (NIH 3T3) cell line stably expressing the TrkB receptor was used. Cells were vehicle-treated or treated with BDNF 1 ng/ml (0.04 nM) in the presence or absence of 0.05 μM to 10 μM B-5 or B-3 for 15 min (FIG. 7A). […] As observed in primary neuronal cultures (shown in FIGS. 5C and D), the treatment with the peptides alone for 15 min induced a weak but significant activation of TrkB receptor when compared to control (ANOVA, p<0.001).

TrkC = biological target: T2, TrkC (Homo sapiens, UniProt Q16288); experiment: Trk phosphorylation and TrkC expression in TrkC stably-expressing NIH-3T3 cells; type: cell-based; settings: for expression of TrkC: 1 μM; for activation of TrkC receptor: peptides 1 μM
T2 construct: expressed in transfected cells; host or cells: NIH-3T3 fibroblasts

[1] = test system: primary E18 hippocampal cells; experiment: Rescue of H2O2-induced neurotoxicity (LDH assay); type: cell-based, mouse
Description: Evaluation of cell death and cell viability was performed using the LDH kit (Promega, Madison Wis., USA), following manufactures instructions. Percentages of cell death and cell viability were plotted separately.
In order to evaluate the potential neuroprotective effect of BDNF peptides, the primary E18 hippocampal cells were challenged with 0, 60, 80 and 100 μM H2O2 for 6 hours, and then cells were washed with culture medium and fresh culture medium was added containing the peptides B-5 or B-3 or BDNF or BDNF plus B-3 (see FIGS. 4A and 4B). After 24 hours, the cell viability was assayed by the LDH method.

[2] = test system: E18 primary hippocampal neurons; experiment: Western blots of neuronal markers, densitometry; type: cell-based, mouse; settings: 5 days
Description: (§1) Following treatment in 6-well plates, cells were washed 2× in glucose buffered saline, GBS (5.4 mM KCl, 138 mM NaCl, 22 mM glucose, and 2 mM Na—KPO pH 7.2), and then lysed by 5 min incubation on ice in 100 or 150 μl of ice-cold RIPA buffer (PBS, 1% w/v NP-40 from Fisher Scientific, 0.1% w/v SDS, and 0.5% w/v sodium desoxycholate) containing 1 mM AEBSF (Gold Biotechnology, St. Louis, Mo., USA), 10 μg/ml aprotinin (Sigma-Aldrich, St. Louis, Mo., USA), and 20 μg/ml of leupeptin and pepstatin (US Biochemicals, Cleveland, Ohio, USA), and phosphatase inhibitors: NaF, Na orthovanadate, (3-glycerophosphate, and microcystein (Sigma-Aldrich, St. Louis, Mo., USA). Extracts were prepared by collecting and pooling a minimum of 2 wells by scraping, and lysates were centrifuged at 20,000×g for 10 min at 4° C. Protein concentration of each cell lysate was determined using the BCA kit (Thermo Scientific, Rockford, Ill., USA). The lysates (7.5-20 μg total protein) were separated on 10% SDS-PAGE gels (except for BDNF where 12% gels were employed) and transferred to 0.45 μm PVDF membrane (Pall, Pensacola, Fla., USA) for probing with antibodies as noted. Blots were blocked for 1 hr at 37° C. in 1×TBST (0.05% Tween 20 in TBS) containing 5% w/v blotting grade dry milk (Bio-rad, Hercules, Calif., USA), incubated in primary antibody overnight in blocking buffer at 4° C., washed 3×10 min in TBST at room temperature, followed by incubation with secondary antibody, i.e., peroxidase-conjugated anti-mouse or anti rabbit IgG (Jackson ImmunoResearch Laboratories, West Grove, Pa., USA) diluted in blocking buffer. Blots were washed 3×10 min in TBST and immunoreactive protein bands were visualized with enhanced chemiluminescence (ECL) reagents (Pierce, Rockford, Ill., USA). The ECL films of the blots were scanned and analyzed using Multi Gauge software version 3.0 (Fujifilm, Tokyo, Japan).
(§2) The following primary antibodies were used: rabbit polyclonal anti-NFM (1:1000; Chemicon/Millipore, Billerica, Mass., USA); mouse monoclonal anti-NeuN, clone A60 (1:500; Millipore, Billerica, Mass., USA); rabbit polyclonal anti-Tuj-1, (3—III-tubulin (Covance; 1:800, Emeryville, Calif., USA); mouse monoclonal SMI 52 to the adult isoforms of MAP-2, MAP2a,b (1:1000; Covance, Emeryvilly, Calif., USA); rabbit polyclonal anti-Synapsin I (1:2000; Stressgen, Farmingdale, N.Y., USA); rabbit monoclonal anti-PSD95 (1:1000; Cell signaling, Danvers, Mass., USA); anti tau 92e (1:10000); mouse monoclonal anti-BDNF (1:1000; Calbiochem, Gibbstown, N.J., USA); rabbit polyclonal anti-TrkB (total) (1:500; Santa Cruz Biotechnology, Santa Cruz, Calif., USA); rabbit polyclonal anti-pTrkB (Tyr706) (1:400; Santa Cruz Biotechnology, Santa Cruz, Calif., USA), TrkC (1:1000; Cruz Biotechnology, Santa Cruz, Calif., USA); and pTrkY490 (1:500; Upstate USA Inc., Charlottesville, Va., USA). For loading control, the blots were developed with rabbit polyclonal antibody to GAPDH (1:2000; Santa Cruz Biotechnology, Santa Cruz, Calif., USA).
To biochemically study the effect of BDNF peptides in inducing expression of neuronal markers, protein samples were recovered from cells treated with peptides B-5, B-4, B-3, or vehicle for five days. As a positive control, protein samples were collected from cells treated with BDNF at 20 ng/ml (0.79 nM) or 100 ng/ml (3.95 nM) (FIG. 3D, E). Western blots of the cell lysates were developed with antibodies to Synapsin I (presynaptic marker), PSD95 (postsynaptic marker), NeuN (late neuronal marker), NFM (early neuronal marker), MAP2 (dendritic marker), 0-IIItubulin (early neuronal marker), and tau 92e (axonal marker).

BDNF = BDNF expression, Western blot, 5 days treatment; type: cell-based, mouse
Description: as §1, §2
To investigate the molecular mechanism by which the BDNF peptides promoted neurogenic/neurotrophic activities, the hippocampal primary cultured neurons were treated with the peptides or BDNF for five days and compared with the control medium treated cells.

[3] = 80 μM H2O2 6 h, then treatment 24 h

T2 sequence (Q16288 32-839, species assumed): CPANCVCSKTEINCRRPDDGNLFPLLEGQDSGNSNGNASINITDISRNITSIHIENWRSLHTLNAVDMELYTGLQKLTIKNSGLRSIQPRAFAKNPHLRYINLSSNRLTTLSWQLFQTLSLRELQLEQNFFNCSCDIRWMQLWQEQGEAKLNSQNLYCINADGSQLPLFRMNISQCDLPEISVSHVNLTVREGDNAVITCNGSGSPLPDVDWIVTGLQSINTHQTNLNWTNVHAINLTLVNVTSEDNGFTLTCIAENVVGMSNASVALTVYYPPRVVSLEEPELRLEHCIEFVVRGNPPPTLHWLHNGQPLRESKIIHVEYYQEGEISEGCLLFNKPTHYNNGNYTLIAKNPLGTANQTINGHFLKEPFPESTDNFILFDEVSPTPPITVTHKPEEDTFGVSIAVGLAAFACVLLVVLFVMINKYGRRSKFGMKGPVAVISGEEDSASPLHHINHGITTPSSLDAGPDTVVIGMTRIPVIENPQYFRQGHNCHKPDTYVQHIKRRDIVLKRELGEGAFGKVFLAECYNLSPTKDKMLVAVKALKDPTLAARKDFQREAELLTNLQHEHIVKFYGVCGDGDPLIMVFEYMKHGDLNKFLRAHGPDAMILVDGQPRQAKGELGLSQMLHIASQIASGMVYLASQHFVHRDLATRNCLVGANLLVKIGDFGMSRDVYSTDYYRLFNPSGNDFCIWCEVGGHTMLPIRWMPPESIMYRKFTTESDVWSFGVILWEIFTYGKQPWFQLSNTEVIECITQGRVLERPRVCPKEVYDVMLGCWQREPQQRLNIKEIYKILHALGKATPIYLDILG
T1 sequence (Q16620 32-822): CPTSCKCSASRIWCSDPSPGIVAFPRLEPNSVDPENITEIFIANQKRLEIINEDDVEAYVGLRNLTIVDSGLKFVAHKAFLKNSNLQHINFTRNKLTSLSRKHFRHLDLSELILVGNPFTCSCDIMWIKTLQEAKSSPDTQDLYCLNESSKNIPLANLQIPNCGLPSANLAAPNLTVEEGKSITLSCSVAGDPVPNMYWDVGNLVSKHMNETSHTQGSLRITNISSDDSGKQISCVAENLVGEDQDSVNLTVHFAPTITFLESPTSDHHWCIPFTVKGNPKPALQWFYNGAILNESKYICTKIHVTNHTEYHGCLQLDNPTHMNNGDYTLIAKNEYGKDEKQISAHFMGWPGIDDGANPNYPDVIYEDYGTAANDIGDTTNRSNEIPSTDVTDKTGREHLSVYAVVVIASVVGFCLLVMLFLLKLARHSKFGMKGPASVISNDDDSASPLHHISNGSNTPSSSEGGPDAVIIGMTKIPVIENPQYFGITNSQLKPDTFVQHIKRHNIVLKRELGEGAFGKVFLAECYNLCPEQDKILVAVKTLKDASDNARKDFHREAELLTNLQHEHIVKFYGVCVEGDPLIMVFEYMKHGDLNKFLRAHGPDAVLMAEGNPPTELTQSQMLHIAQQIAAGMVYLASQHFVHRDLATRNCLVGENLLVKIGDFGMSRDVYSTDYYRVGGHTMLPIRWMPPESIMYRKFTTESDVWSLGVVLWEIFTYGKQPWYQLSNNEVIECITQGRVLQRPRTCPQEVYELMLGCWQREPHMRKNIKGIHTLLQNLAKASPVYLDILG

Row | Substance | competitive inhibition of the activation of TrkB receptor by BDNF (TrkB receptor) | expression of TrkC (TrkC) | activation of TrkC receptor (TrkC) | cell viability (LDH) ([1]; 60 μM H2O2 6 h, then treatment 24 h) | cell death (LDH) [1, 3] | cell viability (LDH) [1, 3] | MAP2 expression (Western blot) ([2]; 0.1 μM) | NFM expression (Western blot) ([2]; 0.1 μM) | expression of NeuN (Western blot) ([2]; 1 μM) | expression of PSD95 (Western blot) ([2]; 1 μM) | levels of 0-IIItubulin (Western blot) ([2]; 1 μM, vs vehicle) | level of tau (92e antibody, Western blot) [2] | expression of BDNF (Western blot) (BDNF; 0.1 μM) | expression of BDNF (Western blot) (BDNF; 1 μM) | expression of BDNF (Western blot) (BDNF; vs control medium) | potentiation of the neuroprotective effect of BDNF ([1]; after H2O2 exposure, combined with BDNF) | neuroprotective effect of the peptide alone ([1]; after H2O2 exposure, without BDNF) | expression of NeuN (Western blot) ([2]; 0.1 μM)
1 | Ac-I-K-R-G-CONH2 [Peptide B-5] | significant competitive inhibition | neither BDNF (20 ng/mL) nor peptides B-5 (1 μM) and B-3 (1 μM) were able to modify the expression of TrkC | neither the peptides nor BDNF were able to activate this receptor | significantly increased the cell viability | significantly reduced cell death; also recorded: moderate effect in reducing the percentage of cell death | significantly increased the cell viability | increased significantly | increased NFM expression | increased the expression of NeuN | significant increment | this increase was not significant | Neither BNDF nor peptides B-3, B-4 or B-5 had any significant effect | strongest induction | lost | induced the expression of BDNF | – | – | –
2 | Ac-S-KKR-CONH2 [Peptide B-3] | significant competitive inhibition | neither BDNF (20 ng/mL) nor peptides B-5 (1 μM) and B-3 (1 μM) were able to modify the expression of TrkC | neither the peptides nor BDNF were able to activate this receptor | – | – | – | – | – | increased the expression of NeuN | – | – | Neither BNDF nor peptides B-3, B-4 or B-5 had any significant effect | not at 0.1 μM | induced an increase | induced the expression of BDNF | significantly potentiated; also recorded: potentiates the neuroprotective effect of BDNF | not sufficient to exert a significant effect | increased the expression of NeuN
